Patent US20250195519A1, “COMBINATION OF DASATINIB AND LOVASTATIN FOR USE IN METHODS FOR THE TREATMENT OF CARDIAC FIBROSIS” (INSERM (INSTITUT NATIONAL DE LA SANTÉ ET DE LA RECHERCHE …, priority 2022, published 2025)
Where two headings read alike, the source gives them in different places.

System: human cardiac fibroblasts
Details: 72 h, 10 ng/ml TGFβ; for effect on TGFβ-induced collagen production: Sirius Red
Method: Primary cardiac fibroblasts were isolated and cultured according to the method described previously [11]. […] The suspension was centrifuged at 300 g for 5 min and the cell pellet was resuspended in DMEM F12 medium (Sigma D6434) supplemented with 10% FBS, penicillin (20 U/mL)-streptomycin (20 μg/mL) and 2 mM glutamine and cultured in a 37° C., 5% CO2 incubator. Primary cardiac fibroblasts were used up to passage 3. Cardiac fibroblasts were exposed to 10 ng/ml TGFβ (T) for 72 h in the presence or absence of 5 μM lovastatin (L) or 5 nM dasatinib (D) or combination of 5 μM lovastatin and 5 nM dasatinib (DL).
Following treatment, cardiac fibroblasts were fixed in methanol, and incubated in the 0.1% Picrosirius red staining solution (Sigma-Aldrich, France) as per manufacturer's instructions.
Picrosirius red was solubilised in 0.1 N sodium hydroxide and the optical density was read at 540 nm (SERLABO Technologies, France).
Data are expressed as mean±SEM. Comparison between two groups was performed by Student's two-tailed t-test while comparison of multiple groups was performed by one-way ANOVA followed by a Bonferroni's post hoc test using GraphPad Prism version 5.00 (GraphPad Software, Inc).

CCC(C)C(=O)OC1CC(C)C=C2C=CC(C)C(CCC3CC(O)CC(=O)O3)C21 (stereo not shown) [lovastatin, [8-[2-(4-hydroxy-6-oxo-oxan-2-yl)ethyl]-3,7-dimethyl-1,2,3,7,8,8a-hexahydronaphthalen-1-yl] 2-methylbutanoate]
collagen values relative to control (5 μM lovastatin): did not reach control values | effect on TGFβ-induced collagen production (5 μM lovastatin): modest but significant effects

Cc1nc(Nc2ncc(C(=O)Nc3c(C)cccc3Cl)s2)cc(N2CCN(CCO)CC2)n1 [dasatinib, N-(2-chloro-6-methylphenyl)-2-[6-[4-(2-hydroxyethyl)-1-piperazinyl]-2-methyl-4-pyrimidinyl]amino]-5-thiazole carboxamide monohydrate]
collagen values relative to control (5 nM dasatinib): did not reach control values | effect on TGFβ-induced collagen production (5 nM dasatinib): modest but significant effects
